Experimental data taken from US6515124B2, “Dehydroamino acids” (Hoffman-La Roche Inc., priority 2000, dated 2003).

Tests used:
[1] = molecular target: T1, LFA-1 binding to immobilized ICAM-1 (Homo sapiens, UniProt P05107+P20701); test: LFA-1/ICAM-1 Protein-Protein Assay (solid-phase ELISA); conditions: 5dICAM-Ig coated plates, membrane-bound LFA-1 from transfected 293 cells
T1 construct: made in house; host or cells: transfected 293 cells (LFA-1)
Experimental: LFA-1/ICAM-1 Protein-Protein Assay
LFA-1/ICAM-1 antagonist activity, defined as the ability to block LFA-1 binding to immobilized ICAM-1, was quantitated using a solid-phase ELISA. Typically, fusion protein consisting of the entire extracellular domain of human ICAM-1 and the Fc domain of human IgG (5dICAM-Ig) was coated onto 96-well microtiter plates (0.15 μg in 100 μL PBS) overnight at 4° C. The plates were then blocked with 150 μL of 1% BSA/1 mM MnCl2/0.14 M NaCl/20 mM HEPES, pH 7.2 for 1 h at 37° C. and washed 3 times (150 μL each) with Wash Buffer (50 mM Tris, pH 7.4/100 mM NaCl/1 mM MnCl2/0.05% Tween 20). Stock solutions (100 μM in 100% DMSO) of test compounds were diluted 50 fold with 150 μL of Binding Buffer (0.05% BSA/0.05% Tween 20/1 mM MnCl2/0.14 M NaCl/20 mM HEPES, pH 7.2) plus 10% DMSO. A series of 1:4 dilutions were performed to achieve a concentration range of 0.12 nM-2 μM. Fifty μL per well of each dilution was added to the ICAM-1 coated plates, followed by 50 μL per well of membrane-bound LFA-1 (280 ng/mL in Binding Buffer) derived from transfected 293 cells. The plates were shaken vigorously for 1 min (room temperature) and gently for 2 h (37° C.). After incubation, the plates were washed 3 times (150 μL each) with Wash Buffer. Mouse anti-human integrin β2 monoclonal antibody was added (100 μL/well, 1 μg/ml in Binding Buffer) and allowed to incubate for 1 h (37° C.) with gentle agitation. The plates were then washed 3 times with Wash Buffer. HRP-conjugated goat anti-mouse IgG (100 μL/well, 1:1500 dilution in Binding Buffer) was added to each well, followed by incubation for 1 h (37° C.) and concluded by three washes (150 μL each) with Wash Buffer. TMB solution (100 μL per well) was added for color development (10 min). The reaction was stopped by the addition of 100 μL of 1M H3PO4 to each well. The plates were then read at 450 nm.

[2] = system: T lymphocyte proliferation (murine spleen cells); test: Mixed Lymphocyte Reaction (MLR), one-way; assay type: cell-based, mice; conditions: C57B1/6 spleen cells with irradiated BALB/c spleen cells, tritiated thymidine incorporation, 3 days
From the text: Mixed Lymphocyte Reaction (MLR)
Admixture of murine spleen cells from two different inbred strains of mice induces proliferation of T lymphocytes. The magnitude of T cell proliferation depends on the extent of disparity in the major histocompatibility antigens between the two strains. Splenic T lymphocytes from both strains proliferate due to alloantigen recognition, a process for which the interaction of ICAM-1 on antigen-presenting cells with LFA-1 on lymphocytes is necessary. The ability of antagonists to inhibit T lymphocyte proliferation following recognition of alloantigens was assessed in a one-way MLR, where cells from one strain were irradiated to permit measurement of the proliferative response of cells from the other strain. Spleen cells were washed three times in tissue culture medium (TCM; see below). Fifty microliters of a spleen cell suspension (prepared at 10×10^6 cells/ml in TCM) obtained from C57B1/6 mice were added to an equal number of lethally-irradiated (2000 rads) spleen cells obtained from BALB/c mice in a 96-well U-bottom tissue culture plate (Costar, 3799). One hundred microliters of serial dilutions of antagonists or TCM were added to the spleen cell mixture. The total volume in each well was 200 μL. TCM was RPMI1640 containing 10% heat-inactivated fetal bovine serum, […] L-glutamine, 100 Units/ml each of penicillin and streptomycin and 5×10^−5 M 2-mercaptoethanol. Dilutions of antagonists were prepared in TCM. Plates were incubated in 5% CO2 for 3 days. On the third day, 0.5 μCi of tritiated thymidine (10 μCi/mL) was added to all the wells. Cells were harvested 6 h later on a 96-well plate harvester and the amount of tritiated thymidine incorporated was assessed in a liquid scintillation counter.

[3] = Mus musculus, T-lymphocyte, light or radiation study, 72 h

T1 sequence (P20701 26-1170): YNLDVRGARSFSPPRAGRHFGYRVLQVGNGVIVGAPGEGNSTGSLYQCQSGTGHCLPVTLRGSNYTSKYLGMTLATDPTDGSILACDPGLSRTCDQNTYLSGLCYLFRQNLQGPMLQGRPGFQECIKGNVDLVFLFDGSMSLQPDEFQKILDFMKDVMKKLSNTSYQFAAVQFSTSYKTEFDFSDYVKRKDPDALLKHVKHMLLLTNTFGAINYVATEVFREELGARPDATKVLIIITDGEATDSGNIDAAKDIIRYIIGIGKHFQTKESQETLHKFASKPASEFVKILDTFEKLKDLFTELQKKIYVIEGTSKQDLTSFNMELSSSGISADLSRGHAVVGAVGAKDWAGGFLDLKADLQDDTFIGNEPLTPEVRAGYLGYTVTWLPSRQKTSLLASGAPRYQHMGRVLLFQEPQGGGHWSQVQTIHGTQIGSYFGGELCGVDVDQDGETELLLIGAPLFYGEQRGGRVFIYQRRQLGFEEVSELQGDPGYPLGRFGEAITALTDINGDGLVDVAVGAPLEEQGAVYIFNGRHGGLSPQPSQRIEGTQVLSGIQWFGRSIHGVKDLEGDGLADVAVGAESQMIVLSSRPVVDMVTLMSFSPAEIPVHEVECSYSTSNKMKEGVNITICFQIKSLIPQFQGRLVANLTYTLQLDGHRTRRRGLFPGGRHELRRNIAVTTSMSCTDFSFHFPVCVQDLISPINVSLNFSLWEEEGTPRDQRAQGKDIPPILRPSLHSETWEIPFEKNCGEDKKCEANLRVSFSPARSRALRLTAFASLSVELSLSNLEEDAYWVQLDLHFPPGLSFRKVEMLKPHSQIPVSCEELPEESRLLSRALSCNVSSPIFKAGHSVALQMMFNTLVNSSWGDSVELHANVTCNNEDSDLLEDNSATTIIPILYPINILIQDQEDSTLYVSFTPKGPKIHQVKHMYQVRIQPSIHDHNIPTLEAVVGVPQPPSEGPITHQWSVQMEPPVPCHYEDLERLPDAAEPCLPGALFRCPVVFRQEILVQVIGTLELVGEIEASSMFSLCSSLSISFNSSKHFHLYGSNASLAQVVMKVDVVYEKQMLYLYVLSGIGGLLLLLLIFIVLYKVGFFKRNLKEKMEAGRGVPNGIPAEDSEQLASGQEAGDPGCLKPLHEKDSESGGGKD
T1 sequence (P05107 23-769): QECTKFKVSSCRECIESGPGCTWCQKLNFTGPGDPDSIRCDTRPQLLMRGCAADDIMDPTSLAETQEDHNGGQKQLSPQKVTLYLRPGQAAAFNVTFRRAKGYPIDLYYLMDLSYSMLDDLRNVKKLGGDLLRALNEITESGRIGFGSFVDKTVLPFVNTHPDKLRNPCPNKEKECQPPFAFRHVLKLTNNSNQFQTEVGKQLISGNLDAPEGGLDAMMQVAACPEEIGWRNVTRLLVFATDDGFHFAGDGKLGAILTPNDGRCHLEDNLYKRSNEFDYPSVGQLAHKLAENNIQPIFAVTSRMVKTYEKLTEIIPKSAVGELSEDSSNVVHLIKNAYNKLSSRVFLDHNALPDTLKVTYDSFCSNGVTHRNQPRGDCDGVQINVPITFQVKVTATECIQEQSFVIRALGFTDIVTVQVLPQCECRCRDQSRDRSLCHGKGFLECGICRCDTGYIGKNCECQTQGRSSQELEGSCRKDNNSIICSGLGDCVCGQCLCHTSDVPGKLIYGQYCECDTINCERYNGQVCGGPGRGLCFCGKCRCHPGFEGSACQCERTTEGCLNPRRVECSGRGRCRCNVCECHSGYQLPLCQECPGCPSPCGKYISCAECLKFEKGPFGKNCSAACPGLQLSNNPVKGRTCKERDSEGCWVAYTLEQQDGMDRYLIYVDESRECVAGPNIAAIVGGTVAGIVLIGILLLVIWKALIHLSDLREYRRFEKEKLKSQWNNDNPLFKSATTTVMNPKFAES

SMILES	IC50 [1] [nM]	IC50 ([1]; disodium salt) [nM]	IC50 ([1]; trifluoroacetate salt) [nM]	melting point [°C]	IC50 [2, 3] [nM]	IC50 ([2]; listed as 285^c) [nM]
O=C(O)/C(=C/c1cccnc1)NC(=O)c1ccc(C(=O)NCc2cccc(O)c2)cc1Br [Example 279]	6.2				1300	
O=C(O)/C(=C/c1ccncc1)NC(=O)c1ccc(C(=O)NCc2cccc(O)c2)cc1Br [Example 280]	5				860	
Cc1noc(C)c1/C=C(\NC(=O)c1ccc(C(=O)NCc2cccc(O)c2)cc1Br)C(=O)O [Example 281]	244				14500	
O=C(O)/C(=C/c1ccccc1)NC(=O)c1ccc(C(=O)NCc2cccc(O)c2)cc1Cl [Example 282]	4.46				1900	
O=C(O)/C(=C/c1cnc2ccccc2c1)NC(=O)c1ccc(C(=O)NCc2cccc(O)c2)cc1Cl [Example 283]	0.79				370	
O=C(O)/C(=C/c1ccc2[nH]nnc2c1)NC(=O)c1ccc(C(=O)NCc2cccc(O)c2)cc1Br [Example 285]		1.14	0.34		235	190
O=C(O)/C(=C/c1ccc2[nH]nnc2c1)NC(=O)c1ccc(C(=O)NCc2cccc3[nH]ccc23)cc1Br [Example 286]	0.74				1200	
Nc1ncc(/C=C(\NC(=O)c2ccc(C(=O)NCc3cccc(O)c3)cc2Cl)C(=O)O)s1 [Example 287]	0.65				1400	
O=C(O)/C(=C/c1nc[nH]n1)NC(=O)c1ccc(C(=O)NCc2cccc(O)c2)cc1Br [Example 290, (Z)-2-[[2-Bromo-4-[[(3-hydroxybenzyl)amino]carbonyl]benzoyl]amino]-3-(1,2,4triazol-3-yl)propenoic Acid]	13.4				1300	
Cc1cc(C(=O)NCc2cccc(O)c2)cc(Cl)c1C(=O)N/C(=C\c1ccc2[nH]nnc2c1)C(=O)O [Example 291, (Z)-3-(1H-Benzotriazol-5-yl)-2-[[2-chloro-4-[[(3-hydroxybenzyl)amino]carbonyl]-6-methylbenzoyl]amino]propenoic Acid]	0.4				515	
Cc1cc(C(=O)NCc2cccc(O)c2)cc(Cl)c1C(=O)N/C(=C\c1cnc2ccccc2c1)C(=O)O [Example 292, (Z)-2-[[2-Chloro-4-[[(3-hydroxybenzyl)amino]carbonyl]-6-methylbenzoyl]amino]-3-(quinolin-3-yl)propenoic Acid]	0.54				925	
Cc1cc(C(=O)NCc2cccc(O)c2)cc(Cl)c1C(=O)N/C(=C\c1ccccc1)C(=O)O [Example 293, (Z)-2-[[2-Chloro-4-[[(3-hydroxybenzyl)amino]carbonyl]-6-methylbenzoyl]amino]-3-phenylpropenoic Acid]	1.29				7100	
O=C(O)/C(=C/c1cnc2ccccc2c1)NC(=O)c1ccc(C(=O)CCc2cccc(O)c2)cc1Cl [Example 294, (Z)-2-[[2-Chloro-4-[3-(3-hydroxyphenyl)-1-oxopropan-1-yl]benzoyl]amino]-3-(quinolin-3-yl)propenoic Acid]	2.38				13000	
Cc1nc(C)c(/C=C(\NC(=O)c2ccc(C(=O)CCc3cccc(O)c3)cc2Cl)C(=O)O)s1 [Example 295]	3				10000	
CC(C)c1ncsc1/C=C(\NC(=O)c1ccc(C(=O)NCc2cccc(O)c2)cc1Cl)C(=O)O [Example 300, (Z)-2-[[2-Chloro-4-[[(3-hydroxybenzyl)amino]carbonyl]benzoyl]amino]-3-[4-(1-methylethyl)thiazol-5-yl]propenoic Acid]	32.5				21500	
Cc1nc(C(C)C)sc1/C=C(\NC(=O)c1ccc(C(=O)NCc2cccc(O)c2)cc1Cl)C(=O)O [Example 301, 2-[[2-Chloro-4-[[(3-hydroxybenzyl)amino]carbonyl]benzoyl]amino]-3-[2-(1-methylethyl)-4-methylthiazol-5-yl]propenoic Acid]	3.03				4250	
CCc1nc(C)c(/C=C(\NC(=O)c2ccc(C(=O)NCc3cccc(O)c3)cc2Cl)C(=O)O)s1 [Example 304, (Z)-2-[[2-Chloro-4-[[(3-hydroxybenzyl)amino]carbonyl]benzoyl]amino]-3-(2-ethyl-4-methylthiazole-5-yl)propenoic Acid]	3			> 200	2100	

Continued, in another order:

IC50 [1] [nM]	IC50 ([1]; disodium salt) [nM]	IC50 ([1]; trifluoroacetate salt) [nM]	melting point [°C]	SMILES	IC50 [2, 3] [nM]	IC50 ([2]; listed as 285^c) [nM]
4.13				Cn1ccc2ccc(/C=C(\NC(=O)c3ccc(C(=O)NCc4cccc(O)c4)cc3Cl)C(=O)O)cc21 [Example 305]	7250	
10.4				O=C(O)/C(=C/c1ccccc1)NC(=O)c1ccc(C(=O)NCc2cccc3[nH]ccc23)cc1Cl [Example 306]	13800	
18.6				O=C(O)/C(=C/c1ccc2ccccc2c1)NC(=O)c1ccc(C(=O)NCc2cccc3[nH]ccc23)cc1Cl [Example 307]	27000	
18.7				O=C(O)/C(=C/c1ccccc1O)NC(=O)c1ccc(C(=O)NCc2cccc3[nH]ccc23)cc1Cl [Example 309]	14500	
11.8				Cc1cc(C(=O)NCc2cccc(O)c2)ccc1C(=O)N/C(=C\c1ccccc1)C(=O)O [Example 311]	10500	
4.7				Cc1cc(C(=O)NCc2cccc(O)c2)ccc1C(=O)N/C(=C\c1cnc2ccccc2c1)C(=O)O [Example 312]	990	
3.05				O=C(O)/C(=C/c1ccc(Br)cc1)NC(=O)c1ccc(C(=O)NCc2cccc(O)c2)cc1Cl [Example 314, (Z)-3-(4-Bromophenyl)-2-[[2-chloro-4-[[(3-hydroxybenzyl)amino]carbonyl]benzoyl]amino]propenoic Acid]	6100	
1.89				O=C(O)/C(=C/c1cc2c(cc1Cl)OCO2)NC(=O)c1ccc(C(=O)NCc2cccc(O)c2)cc1Cl [Example 315]	2500	
3				Cc1cc(C(=O)NCc2cccc(O)c2)ccc1C(=O)N/C(=C\c1ccc2cc[nH]c2c1)C(=O)O [Example 316, (Z)-2-[[4-[[(3-Hydroxybenzyl)amino]carbonyl]-2-methylbenzoyl]amino]-3-(1N-indol-6-yl)propenoic Acid]	1150	
7.52				Cc1nc(C)c(/C=C(\NC(=O)c2ccc(C(=O)NCc3cccc(N)c3)cc2Br)C(=O)O)s1 [Example 321]	11500	
1.74				Nc1cccc(CNC(=O)c2ccc(C(=O)N/C(=C\c3cnc4ccccc4c3)C(=O)O)c(Br)c2)c1 [Example 322]	4450	
0.84				NS(=O)(=O)c1ccc(/C=C(\NC(=O)c2ccc(C(=O)NCc3cccc(O)c3)cc2Cl)C(=O)O)cc1 [Example 323, (Z)-3-(4-Aminosulfonylphenyl)-2-[[2-chloro-4-[[(3-hydroxybenzyl)amino]carbonyl]benzoyl]amino]propenoic Acid]	230	
